Data: patent US4390540A, “Imidazoquinazolines having pharmaceutical activity” (Hoffmann-La Roche Inc., priority 1980, dated 1983)
Read-outs that look alike come from different tables or passages of the source.

How the values were obtained:
[1] = test system: heart frequency; assay: Heart frequency (tachycardia) in conscious sheep dogs; type: in vivo; details: oral
Protocol: (§1) The positive inotropic activity was measured after the oral administration of the test substances to conscious sheep dogs. For this purpose, the animals are provided with an implanted pressure-telemetry system, whereby the pressure receiver is fixed in the left ventricle. The left ventricular pressure is sent from the animal via the implanted radio transmitter and received via a suitable antenna and receiving system, demodulated and amplified. By differentiation of the ascending side of the left ventricular pressure (LVP), there is calculated the maximum pressure increase rate (dLVP/dtmax) which represents the contractility parameter. Simultaneously, the heart frequency is recorded via a cardiotachograph. Under inotropy there are indicated the percentage variation (Δ%) of dLVP/dtmax and the duration of activity in hours (Hrs.). Under tachycardia there are indicated the percentage variations of the heart frequency (Δ%) after administration of the test substance and the duration of activity in hours (Hrs.).

[2] = test system: left ventricular pressure (LVP); assay: Positive inotropic activity (dLVP/dtmax) in conscious sheep dogs; type: in vivo; details: oral; for change in vivo at 3 mg/kg / change in vivo at 1 mg/kg / change in vivo at 10 mg/kg: Canis lupus familiaris, read-out: Inotropy Δ% (percentage variation of dLVP/dtmax)
Protocol: as §1

[3] = test system: gastric acid secretion; assay: Gastric acid secretion inhibition in pylorus-ligated rats (Shay); type: in vivo; details: Rattus norvegicus, intraduodenally, female rats, 4 hours
Protocol: The experimental procedure described hereinafter was used to determine the gastric acid secretion-inhibiting activity. More specifically, the pylorus of female rats, which had received no food for 24 hours, but which had received water ad libitum, is ligatured under slight ether narcosis in accordance with Shay et al. [Gastroenterology 5, 43 (1945)]. Immediately thereafter the substance to be tested is administered intraduodenally to the animals. Four hous later the animals are killed, the volume and the acidity of their gastric juice are determined and the values obtained are compared with those of control animals which were treated similarly, but which received no test substance. The ED 50 is that dosage of test substance which brings about a 50% decrease in volume (ED 50 volume) or acidity (ED 50 acidity) of the gastric juice in the treated animals compared with the control animals.

[4] = test system: Human platelet-rich plasma; assay: Collagen-induced blood platelet aggregation (aggregometer method of Born); type: cell-based; details: 10 min; human platelet-rich citrate plasma, 37° C., 10 minutes incubation, collagen fibrils; read-out: EC50 (collagen-induced blood platelet aggregation, maximum aggregation velocity)
Protocol: The maximum aggregation velocity was taken as the test parameter, and the effective concentration (EC50) was ascertained from dosage-activity curves. Human platelet-rich plasma was obtained by centrifugation from citrated venous blood. The experiments were carried out with suspensions of the test substances in 0.9% sodium chloride. 0.18 ml of citrate plasma was treated with a 10 μl suspension of the test compounds and incubated at 37° C. for 10 minutes, whereupon the aggregation was initiated by the addition of 10 μl of a suspension of collagen fibrils.

| SMILES | Heart frequency Hrs. (duration of activity) ([1]; 3 mg/kg) | Heart frequency Δ% (percentage variation) ([1]; 3 mg/kg) | Inotropy Hrs (duration of activity) ([2]; 3 mg/kg) | change in vivo at 3 mg/kg ([2]; 3 mg/kg) | Heart frequency Hrs. (duration of activity) ([1]; 1 mg/kg) | Heart frequency Δ% (percentage variation) ([1]; 1 mg/kg) | Inotropy Hrs (duration of activity) ([2]; 1 mg/kg) | change in vivo at 1 mg/kg ([2]; 1 mg/kg) | Heart frequency Hrs. (duration of activity) ([1]; 10 mg/kg) | Heart frequency Δ% (percentage variation) ([1]; 10 mg/kg) | Inotropy Hrs (duration of activity) ([2]; 10 mg/kg) | change in vivo at 10 mg/kg ([2]; 10 mg/kg) | ED50 ([3]; read-out: ED 50 acidity (50% decrease in acidity of the gastric juice)) | ED50 ([3]; read-out: ED 50 volume (50% decrease in volume of the gastric juice)) | EC50 [4] |
| --- | --- | --- | --- | --- | --- | --- | --- | --- | --- | --- | --- | --- | --- | --- | --- |
| Cl.O=C1CN2C(=N1)NCc1ccccc12 [4,5-dihydroimidazo[1,2-a]quinazolin-2(1H)-one hydrochloride] | 2.5 h | +4% | 4 h | 79% |  |  |  |  |  |  |  |  |  |  |  |
| CC1C(=O)N=C2NCc3c(ccc(Cl)c3Cl)N21.Cl (stereo not shown) [6,7-dichloro-1-methyl-4,5-dihydroimidazo[1,2-a]quinazolin-2(1H)-one hydrochloride] | 8 h | +16% | 8 h | 48% |  |  |  |  |  |  |  |  |  |  |  |
| Cl.O=C1CN2C(=N1)NCc1c2ccc(Cl)c1Cl [6,7-dichloro-4,5-dihydroimidazo[1,2-a]quinazolin-2(1H)-one hydrochloride] |  |  |  |  | 7 h | +22% | 7.5 h | 44% |  |  |  |  |  |  |  |
| Cc1ccc2c(c1C)CNC1=NC(=O)CN12.Cl [6,7-dimethyl-4,5-dihydroimidazo[1,2-a]quinazolin-2(1H)-one hydrochloride] |  |  |  |  |  |  |  |  | 6 h | +3% | 6 h | 18% |  |  |  |
| Cl.O=C1CN2C(=N1)NCc1c(Cl)cccc12 [6-chloro-4,5-dihydroimidazo[1,2-a]quinazolin-2(1H)-one hydrochloride] |  |  |  |  |  |  |  |  | 6 h | +77% | 7 h | 78% | 10 mg/kg | 15 mg/kg | 12.3 µM |
| COc1ccc2c(c1Cl)CNC1=NC(=O)CN12.Cl [6-chloro-7-methoxy-4,5-dihydroimidazo[1,2-a]quinazolin-2(1H)-one hydrochloride] | 6 h | +20% | 7 h | 32% | 5 h | +47% | 1 h | 10% | 7 h | +45% | 7 h | 60% |  |  |  |
| Cc1cccc2c1CNC1=NC(=O)CN12.Cl [6-methyl-4,5-dihydroimidazo[1,2-a]quinazolin-2(1H)-one hydrochloride] | 5 h | -12% | 4.5 h | 32% | 3.5 h | -7% | 2 h | 15% |  |  |  |  |  |  |  |
| Cc1c(Br)ccc2c1CNC1=NC(=O)CN12.Cl [7-bromo-6-methyl-4,5-dihydroimidazo[1,2-a]quinazolin-2(1H)-one hydrochloride] | 4 h | 0% | 5.5 h | 16% | 4 h | +10% | 2.5 h | 8% | 8 h | +59% | 8 h | 120% |  |  | 35 µM |
| Cl.O=C1CN2C(=N1)NCc1cc(Cl)ccc12 [7-chloro-4,5-dihydroimidazo[1,2-a]quinazolin-2(1H)-one hydrochloride] |  |  |  |  |  |  |  |  | 3 h | +13% | 3.5 h | 17% |  |  |  |
| Cc1c(Cl)ccc2c1CNC1=NC(=O)CN12.Cl [7-chloro-6-methyl-4,5-dihydroimidazo[1,2-a]quinazolin-2(1H)-one hydrochloride] | 3 h | +6% | 1 h | 7% | 5 h | +4% | 6 h | 27% | 6 h | +31% | 6 h | 50% |  |  |  |
| COc1ccc2c(c1)CNC1=NC(=O)CN12.Cl [7-methoxy-4,5-dihydroimidazo[1,2-a]quinazolin-2(1H)-one hydrochloride] |  |  |  |  |  |  |  |  | 6.5 h | +50% | 7 h | 67% |  |  |  |
| Cc1ccc2c(c1)CNC1=NC(=O)CN12.Cl [7-methyl-4,5-dihydroimidazo[1,2-a]quinazolin-2(1H)-one hydrochloride] | 1 h | +6% | 2 h | 33% |  |  |  |  |  |  |  |  |  |  |  |
| Cc1cccc2c1N1CC(=O)N=C1NC2.Cl [9-methyl-4,5-dihydroimidazo[1,2-a]quinazolin-2(1H)-one hydrochloride] | 6 h | -8% | 6.5 h | 18% | 5.5 h | -19% | 2.5 h | 27% |  |  |  |  |  |  |  |
